Measured values published in ChEMBL document CHEMBL4043204, “meso-Dihydroguaiaretic acid derivatives with antibacterial and antimycobacterial activity” (Bioorg Med Chem, 2017).
Values after ≈ are worked out from the molar mass of the structure shown. Active and inactive are the calls of the source. The rule behind the calls is not given here.

How the values were obtained:
Escherichia coli [1] = test: Antibacterial activity against extended-spectrum beta-lactamase-positive Escherichia coli (14-2081) assessed as inhibition of microbial growth up to 50 ug/ml incubated for 24 hrs by microdilution assay; type: functional
Providencia rettgeri = test: Antibacterial activity against NDM-1 positive Providencia rettgeri assessed as inhibition of microbial growth up to 50 ug/ml incubated for 24 hrs by microdilution assay; type: functional
Acinetobacter baumannii = test: Antibacterial activity against carbapenem-resistant Acinetobacter baumannii (12-666) assessed as inhibition of microbial growth up to 50 ug/ml incubated for 24 hrs by microdilution assay; type: functional
Klebsiella pneumoniae [2] = test: Antibacterial activity against extended-spectrum beta-lactamase-positive Klebsiella pneumoniae (14-2081) assessed as inhibition of microbial growth up to 50 ug/ml incubated for 24 hrs by microdilution assay; type: functional
[3] = system: Mycobacterium tuberculosis; test: Antimycobacterial activity against Mycobacterium tuberculosis H37Rv ATCC 27294 assessed as inhibition of mycobacterial growth up to 50 ug/ml incubated for 2 weeks by MABA method; type: functional
Klebsiella pneumoniae [4] = test: Antibacterial activity against NDM-1 positive Klebsiella pneumoniae (14-3335) assessed as inhibition of microbial growth up to 50 ug/ml incubated for 24 hrs by microdilution assay; type: functional
[5] = system: Mycobacterium tuberculosis; test: Antimycobacterial activity against Mycobacterium tuberculosis H37Rv ATCC 27294 assessed as inhibition of mycobacterial growth incubated for 2 weeks by MABA method; type: functional; conditions: for MIC: Mycobacterium tuberculosis, H37Rv ATCC 27294, 336 h
Escherichia coli [6] = test: Antibacterial activity against oxacillin-resistant Escherichia coli OXA-48 assessed as inhibition of microbial growth up to 50 ug/ml incubated for 24 hrs by microdilution assay; type: functional
[7] = system: Stenotrophomonas maltophilia; test: Antibacterial activity against trimethoprim-sulfamethoxazole-resistant Stenotrophomonas maltophilia assessed as inhibition of microbial growth up to 50 ug/ml incubated for 24 hrs by microdilution assay; type: functional
Pseudomonas aeruginosa = test: Antibacterial activity against carbapenem-resistant Pseudomonas aeruginosa (13-1391) assessed as inhibition of microbial growth up to 50 ug/ml incubated for 48 hrs by microdilution assay; type: functional
Vero = test: Cytotoxicity against African green monkey Vero cells assessed as reduction in cell viability incubated for 24 hrs by trypan blue staining based assay; conditions: Chlorocebus sabaeus
[8] = Selectivity index, ratio of IC50 for cytotoxicity against African green monkey Vero cells to MIC for Mycobacterium tuberculosis H37Rv ATCC 27294; type: toxicity, cell-based; conditions: read-out: Selectivity Index

SMILES | Activity (Escherichia coli [1]) | Activity (Providencia rettgeri) | Activity (Acinetobacter baumannii) | Activity (Klebsiella pneumoniae [2]) | growth inhibition (GI) [3] | Activity (Klebsiella pneumoniae [4]) | -logMIC [5] | Activity (Escherichia coli [6]) | Activity [7] | Activity (Pseudomonas aeruginosa) | IC50 (Vero) [µg/mL] | selectivity ratio [8] | MIC [5] [µg/mL]
COc1cc(C[C@@H](C)[C@@H](C)Cc2ccc(OC(=O)c3ccccn3)c(OC)c2)ccc1OC(=O)c1ccccn1 | inactive | inactive | inactive | inactive | inactive | inactive | 3.92 | inactive | inactive | inactive |  |  | 
COc1cc(C[C@@H](C)[C@@H](C)Cc2ccc(OCCN3CCCC3)c(OC)c2)ccc1OCCN1CCCC1 | inactive | inactive | inactive | inactive |  | inactive |  | inactive | inactive | inactive | > 487 | > 19.5 | 25 (≈ 47.6 µM)
COc1cc(C[C@@H](C)[C@@H](C)Cc2ccc(OC(=O)c3cccnc3)c(OC)c2)ccc1OC(=O)c1cccnc1 | inactive | inactive | inactive | inactive |  | inactive | 4.2 | inactive | inactive | inactive | 36.3 (≈ 67.1 µM) | 2.9 | 12.5 (≈ 23.1 µM)
CCCCCCCC/C=C\CCCCCCCC(=O)Oc1ccc(C[C@H](C)[C@H](C)Cc2ccc(O)c(OC)c2)cc1OC (racemic) | inactive | inactive | inactive | inactive | inactive | inactive | 4.51 | inactive | inactive | inactive |  |  | 
CCCCCCCCCCCCCCCCCC(=O)Oc1ccc(C[C@H](C)[C@H](C)Cc2ccc(O)c(OC)c2)cc1OC (racemic) | inactive | inactive | inactive | inactive | inactive | inactive | 3.84 | inactive | inactive | inactive |  |  | 
COc1cc(C[C@@H](C)[C@@H](C)Cc2ccc(OCCN3CCOCC3)c(OC)c2)ccc1O (racemic) | inactive | inactive | inactive | inactive | inactive | inactive |  | inactive | inactive | inactive |  |  | 
CCCC(=O)Oc1ccc(C[C@@H](C)[C@@H](C)Cc2ccc(OC(=O)CCC)c(OC)c2)cc1OC | inactive | inactive | inactive | inactive | inactive | inactive | 4.04 | inactive | inactive | inactive |  |  | 
COc1cc(C[C@@H](C)[C@@H](C)Cc2ccc(OCCN(C)C)c(OC)c2)ccc1OCCN(C)C | inactive | inactive | inactive | inactive |  | inactive | 4.32 | inactive | inactive | inactive | > 487 | > 77.9 | 6.25 (≈ 13.2 µM)
CC[C@@H](CO)NCCN[C@@H](CC)CO [ETHAMBUTOL] |  |  |  |  |  |  |  |  |  |  | 391 (≈ 1910 µM) | 125 | 3.12 (≈ 15.3 µM)
COc1cc(C[C@@H](C)[C@@H](C)Cc2ccc(OC(=O)c3ccccc3[N+](=O)[O-])c(OC)c2)ccc1O (racemic) | inactive | inactive | inactive | inactive |  | inactive | 3.94 | inactive | inactive | inactive | 97.1 (≈ 202 µM) | 7.76 | 12.5 (≈ 26.1 µM)
COc1cc(C[C@@H](C)[C@@H](C)Cc2ccc(OCCN(C)C)c(OC)c2)ccc1O (racemic) | inactive | inactive | inactive | inactive |  | inactive | 4.53 | inactive | inactive | inactive | 327 (≈ 813 µM) | 26.1 | 12.5 (≈ 31.1 µM)
CCN(CC)CCOc1ccc(C[C@@H](C)[C@@H](C)Cc2ccc(OCCN(CC)CC)c(OC)c2)cc1OC | inactive | inactive | inactive | inactive |  | inactive | 4.55 | inactive | inactive | inactive | 36.2 (≈ 68.5 µM) | 1.45 | 25 (≈ 47.3 µM)
COc1cc(C[C@@H](C)[C@@H](C)Cc2ccc(OC(C)=O)c(OC)c2)ccc1OC(C)=O | inactive | inactive | inactive | inactive |  | inactive | 4.23 | inactive | inactive | inactive | 95.1 (≈ 230 µM) | 1.9 | 50 (≈ 121 µM)
COc1ccc(C[C@@H](C)[C@@H](C)Cc2ccc(OC)c(OC)c2)cc1OC [TERAMEPROCOL] | inactive | inactive | inactive | inactive | inactive | inactive | 4.35 | inactive | inactive | inactive |  |  | 
COc1cc(C[C@@H](C)[C@@H](C)Cc2ccc(OC(=O)c3ccccc3)c(OC)c2)ccc1OC(=O)c1ccccc1 | inactive | inactive | inactive | inactive | inactive | inactive | 4.14 | inactive | inactive | inactive |  |  | 
COc1cc(C[C@@H](C)[C@@H](C)Cc2ccc(OC(=O)c3ccccc3)c(OC)c2)ccc1O (racemic) | inactive | inactive | inactive | inactive |  | inactive | 4.61 | inactive | inactive | inactive | 125 (≈ 287 µM) | 9.97 | 12.5 (≈ 28.8 µM)
COc1cc(C[C@@H](C)[C@@H](C)Cc2ccc(OCCN3CCCC3)c(OC)c2)ccc1O (racemic) | inactive | inactive | inactive | inactive |  | inactive | 5.25 | inactive | inactive | inactive | > 487 | > 39 | 12.5 (≈ 29.2 µM)
COc1cc(C[C@@H](C)[C@@H](C)Cc2ccc(OC(=O)c3ccc(Br)cc3)c(OC)c2)ccc1O (racemic) | inactive | inactive | inactive | inactive |  | inactive | 4.58 | inactive | inactive | inactive | 112 (≈ 217 µM) | 8.93 | 12.5 (≈ 24.3 µM)
COc1cc(C[C@@H](C)[C@@H](C)Cc2ccc(OC(=O)c3cnccn3)c(OC)c2)ccc1OC(=O)c1cnccn1 | inactive | inactive | inactive | inactive |  | inactive | 4.23 | inactive | inactive | inactive |  |  | 50 (≈ 92.2 µM)
COc1cc(C[C@@H](C)[C@@H](C)Cc2ccc(OC(=O)c3cccnc3)c(OC)c2)ccc1O (racemic) | inactive | inactive | inactive | inactive |  | inactive | 4.05 | inactive | inactive | inactive | 71.4 (≈ 164 µM) | 1.43 | 50 (≈ 115 µM)
